Columns and labels:
Format in all cases: cell-based, Pseudomonas aeruginosa
[1] = system: PAO1 biofilm; assay: Crystal violet dye based biofilm inhibition assay, maltose derivatives (Example 1); conditions: for Inhibition of PAO1 biofilm: 110 μM, 24 h, CV assay; for Anti-biofilm activity (inhibition): concentration not given
Method: (§1) A crystal violet (CV) assay was used to measure the amount of PAO1 biofilm formed after 24 h of bacterial inoculation. The fluorescence of green fluorescent proteins (GFP) expressed by PAO1-GFP was measured to directly quantify bacterial adhesion on polystyrene black 96 well plates with and without maltose derivatives after 2 h of bacterial inoculation. To evaluate the potential of maltose derivatives as both anti-biofilm and anti-adhesion agents, they were compared to a brominated furanone (BF8) known to inhibit biofilm formation, and two generic surfactants, sodium dodecyl sulfate (SDS) and tetra (ethylene glycol) monododecyl ether (C12EG4OH). […] P. aeruginosa strain PAO1-EGFP that constitutively producing green fluorescent protein was allowed to form biofilm on sterile steel coupons.
Inhibitory effect of all the maltose hydrocarbons on P. aeruginosa biofilm formation was determined by crystal violet dye based biofilm inhibition assays. Overnight culture of wild type P. aeruginosa (PAO1) was sub cultured to an OD600 of 0.01 into the 95:5 M9+:Lb medium. 200 μL of the sub culture was aliquoted into the wells of 96 well polystyrene microtiter plate when it reached the OD600 of 0.1. Predetermined concentrations of the test compounds were then added to the respective wells containing sub culture. Sample plates were wrapped in GLAD Press n′ Seal® followed by incubation under stationary conditions for 24 h at 37° C. After incubation the media was discarded and the plates were washed with water and dried for 1 h at 37° C. The sample plates were stained with 200 μL of 0.1% aqueous solution of crystal violet (CV) and followed by incubation at ambient temperature for 20 min. The CV stain was then discarded and the plates were washed with water. The remaining biofilm adhered stain was re-solubilized with 200 μL of 30% acetic acid. After the stain was dissolved (15 minutes), 100 μL of the solubilized CV was transferred from each well into the corresponding wells of a new polystyrene microtiter dish. Biofilm inhibition was quantified by measuring the OD600 of each well in which a negative control lane wherein no biofilm was formed served as a background and was subtracted out. The percent inhibition was calculated by the comparison of the OD600 for biofilm grown in the absence of compound (control) versus biofilm grown in the presence of compound under identical conditions.
(§2) Predetermined amounts maltose derivatives stock solution was added to the 200 μL bacterial culture in 96 well plate so that the final concentration of the agent reaches the desired values of 1, 5, 10, 20, 40, 85, 113, 140 μM. Biofilm inhibition and dispersion assay was carried as described previously.

[2] = system: PAO1-GFP; assay: microbe, parasite or virus in culture
Method: as §1
Overnight culture of PAO1-GFP was subcultured to an OD600 of 0.01 into the 95:5 M9+:Lb medium. Subculture was allowed to reach the OD600 of 0.1 in a rotary shaker at 250 rpm and 37° C. 200 μL of the subculture was then transferred to the wells of black microtiter plate with and without (control) maltose derivatives. This black 96 well plate was then incubated in a shaker at 37° C. for 2 h. After 2 h, bacterial culture from the plate was discarded and each well was washed once with saline water (0.85 w/v % aqueous NaCl solution). Fresh 95:5 M9+:Lb medium was added to the black 96 well plate and fluorescence of the surface adhered bacteria was measured by Synergy 2 multi-mode microplate reader with Gen5 data analysis software at an excitation wavelength of 500 nm and an emission wavelength of 540 nm. Background signal from 95:5 M9+:Lb medium was eliminated from all the samples.

[3] = system: 24 h old PAO1 biofilm; assay: Crystal violet biofilm dispersion assay, maltose derivatives (Example 1); conditions: concentration not given
Method: Chemical dispersion of already formed biofilm is often more relevant to medical application, and more challenging than biofilm inhibition assays, for which the agents are introduced at the onset of an experiment. We screened the ability of maltose derivatives at 110 μM to disperse 24 h old biofilm.
PAO1 was allowed to grow for 24 h at 37° C. After 24 h, bacterial culture was pipetted out and replaced with 200 μL of 110 μM maltose hydrocarbons and sterile water (control). After 1 h treatment with maltose hydrocarbons, biofilm was fixed and quantified using crystal violet dye as described above. The amount of dispersed biofilm was determined via comparison of the amount of biofilm at 24 h in the presence of maltose hydrocarbons versus the amount of biofilm in the “no compound” positive control at 24 h (wells with water treatment).
as §2

Compound	Inhibition of PAO1 biofilm [1]	Anti-biofilm activity (inhibition) [1]	Inhibition of PAO1-EGFP adhesion on polystyrene ([2]; 85 μM, 2 h)	Anti-biofilm activity (dispersion) [3]	inhibition at 85 µM ([2]; Pseudomonas aeruginosa, PAO1, 2 h, read-out: Inhibition of PAO1-EGFP adhesion on polystyrene) [%]
CCCCCCCCCCCCOCCOCCOCCOCCO [C12EG4OH, tetra (ethylene glycol) monododecyl ether, reference compound]	did not show any noticeable biofilm inhibition	did not show any anti-biofilm activities	about 40%	did not show any anti-biofilm activities	–
CCCCCCCCCCCCOS(=O)(=O)[O-].[Na+] [SDS, sodium dodecyl sulfate, reference compound]	did not show any noticeable biofilm inhibition	did not show any anti-biofilm activities	–	did not show any anti-biofilm activities	~40

From patent publication US11357786B2, “Synthetic disugar hydrocarbons as natural analogs to control microbial behaviors” (Syracuse University, priority 2014, dated 2022)
